Consider one compound from patent US10532065B2, “Bisphosphonic acid derivative and application for same” (NAGASAKI UNIVERSITY, priority 2014, dated 2020).

For assay [1], the system named is γδ T cells in peripheral blood mononuclear cells of breast cancer patients. The note with it: breast cancer patient PBMC, IL-2, 17 days of culture.
Procedure: The obtained mononuclear cells were suspended in Yssel medium at 1.8×10^6 cells/ml, and seeded by 1.5 ml in each well of a 24-well plate. Compound 7 was added to each well at a concentration of 1 μM, and cultured at 37° C. under 5% CO2 atmosphere. After one day of culture, IL-2 was added at a concentration of 100 IU/ml, and the cells were cultured in the presence of 100 IU/ml IL-2 thereafter up to day 6, and cultured in the presence of 30 IU/ml IL-2 from day 7. After 14 days of culture, the cells were recovered, and cell surface molecule was analyzed by flow cytometry using labeled anti-CD3 antibody and labeled anti-Vδ2 antibody. As a control, an antibody having the same isotype as anti-CD3 antibody and anti-Vδ2 antibody but irrelevant thereto was used. The ratio (%) of γδ T cells having the Vδ2 region in CD3 cells was determined.
In the same manner as in Experimental Example 21 except that mononuclear cells obtained from the peripheral blood of breast cancer patients were used, compound 7 was added, and the cells were cultured at 37° C. under 5% CO2 atmosphere. […] After 17 days of culture, the cells were recovered, and cell surface molecule was analyzed by flow cytometry in the same manner as in Experimental Example 21. Also, the ratio (%) of γδ T cells having the Vδ2 region in CD3 cells was determined.
For assay [2], the system named is farnesyl diphosphate synthase (geranylgeranylation of Rap1A). Put plainly: Rap1A geranylgeranylation inhibition in tumor cells (Western blotting). The format is cell-based. The conditions noted are these: non-geranylgeranylated Rap1A, 16 hr, various tumor cell lines (FIG. 9). From the text: To verify this mechanism, whether the farnesyl diphosphate synthase is inhibited in the cell needs to be confirmed. If farnesyl diphosphate synthase is inhibited, intracellular concentration of geranylgeranyl diphosphate decreases, and geranylgeranylation of Rap1A small G protein is inhibited. The inhibitory effect thereof is clarified by quantifying the inhibition of geranylgeranylation of Rap1A. […] As the tumor cells, MOLT-3, PEER, C1R, J.RT3-T3.5, Raji, RAMOS-RA1, MOLT-4, HL60, U937, THP-1, SCC-3, P31/FUJ, K562, NOMO-1, YMB-1-E, MRK-nu-1, HMC-1-8, MCF-7, MDA-MB-231, T-47D, SK-BR-3, 786-0, VMRC-RCZ, UOK121, Caki-1, A-704, BxPC-3, KP4-1, KP4-2, KP4-3, MiaPaCa-2, TGBC24TKB, ACS, MG-63, LK-2, EJ-1 were used. […] Thereto was added 10 mM stock solution of compound 7 to a final concentration of 10 μM, 1 μM, 100 nM, 10 nM, 1 nM, 100 pM, 10 pM, 1 pM. These flasks were cultured at 37° C. under 5% CO2 atmosphere for 16 hr. Non-adherent cells were left unattended, and adherent cells were recovered using EDTA/trypsin solution. […] The supernatant was removed, and suspended in cell lysis solution (100 μl) composed of 1% NP-40, 0.1% SDS, 0.5% sodium deoxycholate. […]
To quantitatively analyze the inhibitory efficiency thereof, the concentration of a compound that inhibits geranylgeranylation of Rap1A by half was calculated as EC50 value and studied by comparison. […]
(A western blot detects proteins with antibodies after separation by electrophoresis.)

The subject of assay [3] is γδ T cells in peripheral blood mononuclear cells of a healthy adult. The conditions noted are these: healthy adult PBMC, 1 μM, IL-2, 14 days of culture.
Procedure: Mononuclear cells were obtained by the specific gravity centrifugation method from the peripheral blood of a healthy adult. The obtained mononuclear cells were suspended in Yssel medium at 1.8×10^6 cells/ml, and seeded by 1.5 ml in each well of a 24-well plate. Compound 7 was added to each well at a concentration of 1 μM, and cultured at 37° C. under 5% CO2 atmosphere. After one day of culture, IL-2 was added at a concentration of 100 IU/ml, and the cells were cultured in the presence of 100 IU/ml IL-2 thereafter up to day 6, and cultured in the presence of 30 IU/ml IL-2 from day 7. After 14 days of culture, the cells were recovered, and cell surface molecule was analyzed by flow cytometry using labeled anti-CD3 antibody and labeled anti-Vδ2 antibody. As a control, an antibody having the same isotype as anti-CD3 antibody and anti-Vδ2 antibody but irrelevant thereto was used. The ratio (%) of γδ T cells having the Vδ2 region in CD3 cells was determined.
Assay [4] relates to various tumor cell lines / γδ T cells. Put plainly: TNF-α production induction ability in various tumor cell lines (FIG. 7, 8). The format is cell-based. The note with it: various tumor cell lines pretreated, γδ T cells (FIG. 7, 8). How it is done:
From the results of the above-mentioned Experimental Example, of the bisphosphonic acid POM ester derivatives, since the activity of compound 7 was high, the TNF-α production induction ability of this compound was studied using tumor cells other than EJ-1. In this case, to study effectiveness of POM esterification, using compound 14, which is the corresponding bisphosphonic acid, as a control to be the comparison target. […] Thereto was added a solution (500 μl) of compound 7 obtained by serially diluting 10 mM stock solution 10-fold from 20 μM, or a solution (500 μl) of compound 14 obtained by serially diluting 10 mM stock solution 10-fold from 200 μM, and the cells were suspended well. These conical tubes were stood at 37° C. for 4 hr, and the cells were washed 3 times with 5 ml of culture medium. To these cells was added 500 μl of medium, and the cells were suspended well. […] The content of TNF-α was calculated from the analytical curve of TNF-α. […]
Therefore, TNF-α production induction ability of compound 7 was studied in more number of tumor cell lines. […] The content of TNF-α was calculated from the analytical curve of TNF-α.
To quantitatively study the above-mentioned TNF-α production induction ability, various tumor cell lines were treated with compound 7, reacted with γδ T cells, the produced TNF-α amount was measured, and TNF-α50 value thereof was calculated. […]

The structures appear in SMILES notation. Entries after “also recorded” stand apart in the source; their conditions may differ.

For `CC(C)(C)C(=O)OCOP(=O)(OCOC(=O)C(C)(C)C)C(CNc1nccs1)P(=O)(OCOC(=O)C(C)(C)C)OCOC(=O)C(C)(C)C` [Compound 7, tetrakispivaloyloxymethyl 2-(thiazol-2-ylamino) ethylidene-1,1-bisphosphonate], in assay [1], the “ratio (%) of γδ T cells having the Vδ2 region in CD3 cells (purity)” value is listed as “not less than 96%”. The “farnesyl diphosphate synthase inhibitory action in cells (in words)” value in assay [2] was “inhibits efficiently, in any tumor cells, farnesyl diphosphate synthase; also recorded: high farnesyl diphosphate synthase inhibitory action in lymphatic tumor cells and myeloidic tumor cells”. For the same compound, the “ratio (%) of γδ T cells having the Vδ2 region in CD3 cells” value in assay [3] came to 99.8%. In assay [4], the “TNF-α production induction ability (in words)” value is reported as “TNF-α production induction ability becomes high by POM esterification in any tumor cells; also recorded: efficient induction of TNF-α production from γδ T cells in any cell line”.
